From patent publication US11000033B2, “Ketone or oxime compound, and herbicide” (NISSAN CHEMICAL CORPORATION, priority 2014, dated 2021)

Columns and labels:
Assay type in all cases: in vivo
[1] = tested on: Echinochloa oryzacola Vasing.; assay: Test Example 1: herbicidal activity, application before weed generation in submerged conditions (symbol A); conditions: application herbicide amount 320 g/ha
How it was run: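 Paddy pre-emergence test. Formulated emulsion, water-diluted to a predetermined rate, is applied to floodwater on sowing day; rice transplanted at 2.5 leaves. Effect read at 3 weeks on a 0–5 herbicidal-ratio scale.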

[2] = tested on: Echinochloa oryzacola Vasing.; assay: Test Example 2: herbicidal activity, application during weed generation in submerged conditions (symbol A); conditions: Table 23; application herbicide amount 320 g/ha; grade 0-5 by criteria of Test Example 1
How it was run: (§1)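 Treatment timing was the one- to two-leaf stage, with diluted emulsifiable compound dropped onto the paddy water (depth 4 cm) over alluvial soil. All three species grew from a mixed sowing in a 25° C. to 30° C. greenhouse. Injury was judged by eye 3 weeks on.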

Monochoria vaginalis = assay: Test Example 2: herbicidal activity, application during weed generation in submerged conditions (symbol C); conditions: Table 23; application herbicide amount 320 g/ha; grade 0-5 by criteria of Test Example 1
How it was run: as §1

Cyperus difformis = assay: Test Example 3: herbicidal effect by foliage application, Wagner pot (symbol E); conditions: application herbicide amount 320 g/ha
How it was run: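 The compound, formulated as an emulsion and diluted with water to a predetermined rate, is applied uniformly to leaves of two-week-old seedlings growing in submerged alluvial soil at 25–30 °C. Rice is included. Each plant is assessed 3 weeks later using defined criteria.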

[3] = tested on: directly sowed rice plant; assay: Test Example 3: effect on crop by foliage application, Wagner pot (symbol b); conditions: application herbicide amount 320 g/ha
How it was run: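 Wagner pot (1/10000 are), alluvial soil, submerged 0.1–0.5 cm; sown E. crus-galli var. crus-galli, L. chinensis, C. difformis, rice; greenhouse 25–30 °C.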

[4] = tested on: Echinochloa crus-galli var. crus-galli; assay: Test Example 4: herbicidal effect by soil treatment (symbol H)
How it was run: (§2)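 Seeds were sown in sterilized diluvial soil, covered with about 1.5 cm of soil, and the soil surface was sprayed with a water-diluted emulsion of the compound at a predetermined rate. Plants grew in a greenhouse at 25° C. to 30° C.; effects were scored visually 3 weeks after application.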

Abutilon theophrasti = assay: Test Example 4: herbicidal effect by soil treatment (symbol M)
How it was run: as §2

Stellaria media [5] = assay: Test Example 4: herbicidal effect by soil treatment (symbol P)
How it was run: as §2

Digitaria ciliaris = assay: Test Example 5: herbicidal effect by foliage application, plastic box (symbol F); conditions: 320 g/ha, 3 weeks after application
How it was run: (§3)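 Visual herbicidal score, taken three weeks post-application, of seedlings sprayed on the foliage with water-diluted emulsion at a predetermined amount; plants were 14 days old, greenhouse-raised at 25° C. to 30° C.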

Avena fatua = assay: Test Example 5: herbicidal effect by foliage application, plastic box (symbol I); conditions: 320 g/ha, 3 weeks after application
How it was run: as §3

Apera spica-venti = assay: Test Example 5: herbicidal effect by foliage application, plastic box (symbol L); conditions: 320 g/ha, 3 weeks after application
How it was run: as §3

Stellaria media [6] = assay: Test Example 5: herbicidal effect by foliage application, plastic box (symbol P); conditions: 320 g/ha, 3 weeks after application
How it was run: as §3

rice plant = assay: Test Example 5: effect on crop by foliage application, plastic box (symbol b); conditions: 320 g/ha, 3 weeks after application
How it was run: (§4)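 Plants were raised from seed in a greenhouse (25° C. to 30° C.) after sowing in a plastic box of sterilized diluvial soil.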

rapeseed = assay: Test Example 5: effect on crop by foliage application, plastic box (symbol g); conditions: 320 g/ha, 3 weeks after application
How it was run: as §4

[7] = application herbicide amount 320 g/ha

Row | Structure (SMILES) | Herbicidal effect grade, A: Echinochloa oryzacola Vasing. [1] | Herbicidal effect grade, A: Echinochloa oryzacola Vasing. [2] | Herbicidal effect grade, C: Monochoria vaginalis (Monochoria vaginalis) | herbicidal effect on E, grade 0-5 (Cyperus difformis) | effect on crop b (directly sowed rice plant), grade 0-5 [3] | H: Echinochloa crus-galli var. crus-galli, herbicidal effect grade [4, 7] | M: Abutilon theophrasti, herbicidal effect grade (Abutilon theophrasti; [7]) | P: Stellaria media, herbicidal effect grade (Stellaria media [5]; [7]) | F: Digitaria ciliaris, herbicidal effect grade (Digitaria ciliaris) | I: Avena fatua, herbicidal effect grade (Avena fatua) | L: Apera spica-venti, herbicidal effect grade (Apera spica-venti) | P: Stellaria media, herbicidal effect grade (Stellaria media [6]) | b: directly sowed rice plant, effect on crop grade (rice plant) | g: rapeseed, effect on crop grade (rapeseed) | H: Echinochloa crus-galli var. crus-galli, herbicidal effect grade ([4]; 320 g/ha) | M: Abutilon theophrasti, herbicidal effect grade (Abutilon theophrasti; 320 g/ha) | P: Stellaria media, herbicidal effect grade (Stellaria media [5]; 320 g/ha) | also measured
1 | COCC(=O)CC1CC(O)=C(c2c(C)cc(C)cc2C)C1=O (stereo not shown) [2-007] | 3 (Herbicidal ratio of 40% or higher and lower than 70%) | 3 (Herbicidal ratio of 40% or higher and lower than 70%) | 0 (Herbicidal ratio of 5% or lower (almost no effect)) | 5 (Herbicidal ratio of 90% or more (almost completely withered)) | 5 (Herbicidal ratio of 90% or more (almost completely withered)) | 5 (Herbicidal ratio of 90% or more (almost completely withered)) | 0 (Herbicidal ratio of 5% or lower (almost no effect)) | 0 (Herbicidal ratio of 5% or lower (almost no effect)) | 1 (Herbicidal ratio of 5% or higher and lower than 20%) | 0 (Herbicidal ratio of 5% or lower (almost no effect)) | 3 (Herbicidal ratio of 40% or higher and lower than 70%) | 2 (Herbicidal ratio of 20% or higher and lower than 40%) | 3 (Herbicidal ratio of 40% or higher and lower than 70%) | 1 (Herbicidal ratio of 5% or higher and lower than 20%) |  |  |  | 
2 | CON=C(C)CC1CC(OC(=O)c2c(Cl)nn(C)c2Cl)=C(c2c(C)cc(C)cc2C)C1=O (stereo not shown) [1-160] | 5 (Herbicidal ratio of 90% or more (almost completely withered)) | 5 (Herbicidal ratio of 90% or more (almost completely withered)) | 4 (Herbicidal ratio of 70% or higher and lower than 90%) | 5 (Herbicidal ratio of 90% or more (almost completely withered)) | 5 (Herbicidal ratio of 90% or more (almost completely withered)) |  |  |  | 5 (Herbicidal ratio of 90% or more (almost completely withered)) | 5 (Herbicidal ratio of 90% or more (almost completely withered)) | 5 (Herbicidal ratio of 90% or more (almost completely withered)) | 3 (Herbicidal ratio of 40% or higher and lower than 70%) | 5 (Herbicidal ratio of 90% or more (almost completely withered)) | 5 (Herbicidal ratio of 90% or more (almost completely withered)) | 5 (Herbicidal ratio of 90% or more (almost completely withered)) | 4 (Herbicidal ratio of 70% or higher and lower than 90%) | 0 (Herbicidal ratio of 5% or lower (almost no effect)) | 
3 | CON=C(C)CC1CC(OC(=O)c2ccccc2)=C(c2c(C)cc(C)cc2C)C1=O (stereo not shown) [1-010] | 5 (Herbicidal ratio of 90% or more (almost completely withered)) | 5 (Herbicidal ratio of 90% or more (almost completely withered)) | 2 (Herbicidal ratio of 20% or higher and lower than 40%) | 5 (Herbicidal ratio of 90% or more (almost completely withered)) | 5 (Herbicidal ratio of 90% or more (almost completely withered)) |  |  |  | 5 (Herbicidal ratio of 90% or more (almost completely withered)) | 5 (Herbicidal ratio of 90% or more (almost completely withered)) | 5 (Herbicidal ratio of 90% or more (almost completely withered)) | 4 (Herbicidal ratio of 70% or higher and lower than 90%) | 5 (Herbicidal ratio of 90% or more (almost completely withered)) | 4 (Herbicidal ratio of 70% or higher and lower than 90%) |  |  |  | H (Echinochloa crus-galli var. crus-galli) herbicidal effect grade [4, 7]: 5 (Herbicidal ratio of 90% or more (almost completely withered)); M (Abutilon theophrasti) herbicidal effect grade (Abutilon theophrasti; [7]): 5 (Herbicidal ratio of 90% or more (almost completely withered)); P (Stellaria media) herbicidal effect grade (Stellaria media [5]; [7]): 4 (Herbicidal ratio of 70% or higher and lower than 90%)
4 | CCC(C)C(=O)CC1CC(O)=C(c2c(C)cc(C)cc2C)C1=O (stereo not shown) [2-024] | 2 (Herbicidal ratio of 20% or higher and lower than 40%) | 1 (Herbicidal ratio of 5% or higher and lower than 20%) | 0 (Herbicidal ratio of 5% or lower (almost no effect)) | 0 (Herbicidal ratio of 5% or lower (almost no effect)) | 5 (Herbicidal ratio of 90% or more (almost completely withered)) | 4 (Herbicidal ratio of 70% or higher and lower than 90%) | 0 (Herbicidal ratio of 5% or lower (almost no effect)) | 0 (Herbicidal ratio of 5% or lower (almost no effect)) | 4 (Herbicidal ratio of 70% or higher and lower than 90%) | 2 (Herbicidal ratio of 20% or higher and lower than 40%) | 2 (Herbicidal ratio of 20% or higher and lower than 40%) | 0 (Herbicidal ratio of 5% or lower (almost no effect)) | 5 (Herbicidal ratio of 90% or more (almost completely withered)) | 3 (Herbicidal ratio of 40% or higher and lower than 70%) |  |  |  | 
5 | CON=C(C)CC1CC(OC(=O)c2ccccc2OC(F)(F)F)=C(c2c(C)cc(C)cc2C)C1=O (stereo not shown) [1-155] | 5 (Herbicidal ratio of 90% or more (almost completely withered)) | 5 (Herbicidal ratio of 90% or more (almost completely withered)) | 3 (Herbicidal ratio of 40% or higher and lower than 70%) | 5 (Herbicidal ratio of 90% or more (almost completely withered)) | 5 (Herbicidal ratio of 90% or more (almost completely withered)) |  |  |  |  |  |  |  |  |  | 5 (Herbicidal ratio of 90% or more (almost completely withered)) | 5 (Herbicidal ratio of 90% or more (almost completely withered)) | 0 (Herbicidal ratio of 5% or lower (almost no effect)) | F: Digitaria ciliaris, herbicidal effect (criteria 0-5) (Digitaria ciliaris): 5 (Herbicidal ratio of 90% or more (almost completely withered)); I: Avena fatua, herbicidal effect (criteria 0-5) (Avena fatua): 5 (Herbicidal ratio of 90% or more (almost completely withered)); L: Apera spica-venti, herbicidal effect (criteria 0-5) (Apera spica-venti): 5 (Herbicidal ratio of 90% or more (almost completely withered)); P: Stellaria media, herbicidal effect (criteria 0-5) (Stellaria media [6]): 2 (Herbicidal ratio of 20% or higher and lower than 40%); b: directly sowed rice plant, effect on crop (criteria 0-5) (rice plant): 5 (Herbicidal ratio of 90% or more (almost completely withered)); g: rapeseed, effect on crop (criteria 0-5) (rapeseed): 4 (Herbicidal ratio of 70% or higher and lower than 90%)
